Assay results published in US20230390274A1 (EPIRIUM BIO INC., priority 2020, published 2023).
pIC50: −log10 of the molar value.

What follows are compounds tested against 15-PGDH/HPGD (Homo sapiens (Human), UniProt P15428) (assay: hPGDH inhibitor screening biochemical assay). Details: 10 nM 15-PGDH/HPGD, 15 μM PGE2, 0.25 mM NAD; read-out: hPGDH: Average IC50.
15-PGDH/HPGD, sequence (P15428 whole entry): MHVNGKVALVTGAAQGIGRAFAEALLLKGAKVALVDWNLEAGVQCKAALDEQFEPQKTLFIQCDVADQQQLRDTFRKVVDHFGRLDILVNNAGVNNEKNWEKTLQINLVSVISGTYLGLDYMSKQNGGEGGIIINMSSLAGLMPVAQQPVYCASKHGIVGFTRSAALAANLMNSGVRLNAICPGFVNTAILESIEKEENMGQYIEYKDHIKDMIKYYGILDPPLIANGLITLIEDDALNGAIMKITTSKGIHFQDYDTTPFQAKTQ
Description: A hydroxyprostaglandin dehydrogenase inhibition screening biochemical assay can be performed to assess the synthesized inhibitors provided herein. Provided herein is an exemplary biochemical assay for hPGDH inhibitor screening.
The in vitro biochemical assay can be performed in white, 384 plates in total 20 μl reaction volume consisting of 10 nM of 15-PGDH/HPGD (R&D System #5660-DH), 15 μM Prostaglandin E2 (Sigma, Cat #P5640-10MG) and 0.25 mM β-Nicotinamide adenine dinucleotide sodium salt (Sigma, Cat #N0632-5G) made in reaction buffer (50 mM Tris-HCl, pH 7.5, 0.01% Tween 20) at 10-point dose response curve for test/tool compounds. Briefly, 5 μl (4×) of compounds solution and 5 μl (final concentration, 10 nM) of enzyme solution is added to white 384 well plates and incubated for 10 mins at 37° C. 5 μl (4×) of Prostaglandin E2 and 5 μl (4×) of β-Nicotinamide adenine dinucleotide sodium salt is added to the wells and incubated for 10 mins at rt. Fluorescence is recorded at ex/em=340 nm/485 nm. The percentage (%) inhibition of enzyme activity was determined relative to […] (1% DMSO) and IC50 was calculated using GraphPad prism software (four parameter-variable slope equation).
For `N#Cc1ccc(-n2ccc3cc(C(=O)N4CC[C@H](F)C4)cnc32)cc1` (single isomer, unassigned) [A-340], the pIC50 was > 7.00.
In the case of `N#Cc1ccc(-n2ccc3cc(C(=O)N4CC[C@@H](F)C4)cnc32)cc1` (single isomer, unassigned) [A-341], the pIC50 was > 7.00.
`O=C(c1ccc2c(c1)ncn2-c1cccc(Cl)c1)N1CC2CCCC2C1` (stereo not shown) [A-1] was tested, and the pIC50 was > 7.00.
In the case of `O=C(c1ccc2c(c1)ncn2-c1cccc(Cl)c1)N1CCCCCC1` [A-2], the pIC50 was > 7.00.
For `O=C(c1ccc2c(c1)ncn2-c1cccc(Cl)c1)N1CC2CCC(C2)C1` [A-4], the pIC50 was > 7.00.
With `O=C(c1ccc2c(c1)ncn2-c1cccc(Cl)c1)N1CC2(CCC2)C1` [A-5] the pIC50 was > 7.00.
With `O=C(c1ccc2c(c1)ncn2-c1cccc(Cl)c1)N1CCCCC1` [A-6] the pIC50 was > 7.00.
In the case of `O=C(c1ccc2c(c1)ncn2-c1cccc(Cl)c1)N1CCC(F)(F)CC1` [A-8], the pIC50 was > 7.00.
With `O=C(c1ccc2c(c1)ncn2-c1cccc(Cl)c1)N1CCC(F)(F)C1` [A-10] the pIC50 was ≤ 6.00.
In the case of `O=C(c1ccc2c(c1)ncn2-c1cccc(Cl)c1)N1CCC(Cl)C1` (stereo not shown) [A-12], the pIC50 was > 7.00.
`O=C(c1ccc2c(c1)ncn2-c1cccc(Cl)c1)N1CCC(O)C1` (stereo not shown) [A-13] was tested, and the pIC50 was ≤ 6.00.
`O=C(Nc1ccccc1)c1ccc2c(c1)ncn2-c1cccc(Cl)c1` [A-16] was tested, and the pIC50 was ≤ 6.00.
In the case of `O=C(c1ccc2c(c1)ncn2-c1cccc(Cl)c1)N1CC(F)C1` [A-20], the pIC50 was > 7.00.
With `O=C(c1ccc2c(c1)ncn2-c1cccc(Cl)c1)N1CC(Cl)C1` [A-21] the pIC50 was > 7.00.
For `CN(C(=O)c1ccc2c(c1)ncn2-c1cccc(Cl)c1)C1CC1` [A-23, 1-(3-chlorophenyl)-N-cyclopropyl-N-methyl-1H-benzo[d]imidazole-5-carboxamide], the pIC50 was ≤ 6.00.
`O=C1CCN(C(=O)c2ccc3c(c2)ncn3-c2cccc(Cl)c2)C1` [A-24, 1-(1-(3-chlorophenyl)-1H-benzo[d]imidazole-5-carbonyl)pyrrolidin-3-one] was tested, and the pIC50 was ≤ 6.00.
With `CCOC(=O)c1nc2cc(C(=O)N3CCCCC3)ccc2n1-c1cccc(Cl)c1` [A-26] the pIC50 was > 7.00.
For `CCOC(=O)Cc1nc2cc(C(=O)N3CCCCC3)ccc2n1-c1cccc(Cl)c1` [A-27], the pIC50 was > 7.00.
With `Cc1nc2cc(C(=O)N3CCCCC3)ccc2n1-c1cccc(Cl)c1` [A-28] the pIC50 was > 7.00.
For `CCOC(=O)CCc1nc2cc(C(=O)N3CCCCC3)ccc2n1-c1cccc(Cl)c1` [A-29], the pIC50 was > 7.00.
With `O=C(O)CCc1nc2cc(C(=O)N3CCCCC3)ccc2n1-c1cccc(Cl)c1` [A-30] the pIC50 was > 7.00.
For `NC(=O)CCc1nc2cc(C(=O)N3CCCCC3)ccc2n1-c1cccc(Cl)c1` [A-31], the pIC50 was > 7.00.
For `COc1ccc(-n2cnc3cc(C(=O)N4CCCCC4)ccc32)cc1` [A-32], the pIC50 was > 7.00.
In the case of `COc1ccc(-n2cnc3cc(C(=O)N4CCC(F)CC4)ccc32)cc1` [A-33], the pIC50 was > 7.00.
For `COc1ccc(-n2cnc3cc(C(=O)N4CCCCC4)ccc32)nc1` [A-35], the pIC50 was > 7.00.
`COc1ccc(-n2cnc3cc(C(=O)N4CCCCC4)ccc32)cc1Cl` [A-36, (1-(3-chloro-4-methoxyphenyl)-1H-benzo[d]imidazol-5-yl)(piperidin-1-yl)methanone] was tested, and the pIC50 was > 7.00.
For `O=C(c1ccc2c(c1)ncn2-c1ccc2c(c1)OCO2)N1CCCCC1` [A-37], the pIC50 was > 7.00.
`COc1ccc(-n2cnc3cc(C(=O)N4CCC(F)CC4)ccc32)nc1` [A-38] was tested, and the pIC50 was > 7.00.
In the case of `O=C(c1ccc2c(c1)ncn2-c1ccc(O)c(Cl)c1)N1CCCCC1` [A-39, (1-(3-chloro-4-hydroxyphenyl)-1H-benzo[d]imidazol-5-yl)(piperidin-1-yl)methanone], the pIC50 was > 7.00.
For `O=C(c1cnc2c(ccn2-c2cccc(Cl)c2)c1)N1CCCCC1` [A-40], the pIC50 was > 7.00.
`O=C(c1cnc2c(ccn2-c2ccccn2)c1)N1CCCCC1` [A-41] was tested, and the pIC50 was > 7.00.
`O=C(c1cnc2c(ccn2-c2cccnc2)c1)N1CCCCC1` [A-42] was tested, and the pIC50 was > 7.00.
For `O=C(c1cnc2c(ccn2-c2ccncn2)c1)N1CCCCC1` [A-43], the pIC50 was > 7.00.
With `O=C(c1cnc2c(ccn2-c2cncnc2)c1)N1CCCCC1` [A-44] the pIC50 was > 7.00.
In the case of `O=C(c1cnc2c(ccn2-c2cnccn2)c1)N1CCCCC1` [A-45], the pIC50 was > 7.00.
With `O=C(c1cnc2c(ccn2-c2cscn2)c1)N1CCCCC1` [A-47] the pIC50 was > 7.00.
`O=C(c1cnc2c(ccn2-c2cn[nH]c2)c1)N1CCCCC1` [A-48] was tested, and the pIC50 was > 7.00.
With `Cn1cc(-n2ccc3cc(C(=O)N4CCCCC4)cnc32)cn1` [A-49] the pIC50 was > 7.00.
`O=C(c1cnc2c(ccn2-c2cnccn2)c1)N1CCC(F)CC1` [A-50] was tested, and the pIC50 was > 7.00.
With `O=C(c1cnc2c(ccn2-c2ccncn2)c1)N1CCC(F)CC1` [A-53] the pIC50 was > 7.00.
With `O=C(c1cnc2c(ccn2-c2ccc(O)nc2)c1)N1CCC(F)CC1` [A-55] the pIC50 was > 7.00.
`O=C(c1cnc2c(ccn2-c2cccnc2)c1)N1CCC(F)CC1` [A-56] was tested, and the pIC50 was > 7.00.
For `O=C(c1cnc2c(c1)c(Cl)cn2-c1cccnc1)N1CCC(F)CC1` [A-57], the pIC50 was > 7.00.
With `Cn1cc(-n2ccc3cc(C(=O)N4CCC(F)CC4)cnc32)cn1` [A-58] the pIC50 was > 7.00.
With `Cn1cc(-n2cc(Cl)c3cc(C(=O)N4CCC(F)CC4)cnc32)cn1` [A-59] the pIC50 was > 7.00.
For `O=C(c1cnc2c(c1)c(Cl)cn2-c1cncnc1)N1CCC(F)CC1` [A-60], the pIC50 was > 7.00.
For `COc1ccc(-n2ccc3cc(C(=O)N4CCC(F)CC4)cnc32)cn1` [A-61], the pIC50 was > 7.00.
For `O=C(c1cnc2c(c1)ncn2-c1cccc(Cl)c1)N1CCCCC1` [A-62], the pIC50 was > 7.00.
With `COc1ccc(-n2cnc3cc(C(=O)N4CCCCC4)cnc32)cc1` [A-63] the pIC50 was > 7.00.
In the case of `COc1ccc(-n2cnc3cc(C(=O)N4CCC(F)CC4)cnc32)cc1` [A-64], the pIC50 was > 7.00.
`COc1ccc(-n2cnc3cc(C(=O)N4CCC(F)(F)CC4)cnc32)cc1` [A-65] was tested, and the pIC50 was > 7.00.
For `COc1ccc(-n2c(NC(C)=O)nc3cc(C(=O)N4CCC(F)CC4)cnc32)cc1` [A-68], the pIC50 was ≤ 6.00.
For `O=C(c1ccc(COc2ccccc2Br)cc1)N1CCCCC1` [A-69], the pIC50 was > 7.00.
In the case of `O=C(c1ccc(COc2ccccc2Cl)cc1)N1CCCCC1` [A-70], the pIC50 was > 7.00.
In the case of `COc1cc(C(=O)N2CCCCC2)ccc1COc1ccccc1Cl` [A-71], the pIC50 was > 7.00.
With `O=C(c1ccc(CSc2ccccc2Cl)cc1)N1CCCCC1` [A-72] the pIC50 was > 7.00.
With `O=C(c1ccc(COc2ccccc2Cl)cn1)N1CCC(F)CC1` [A-76] the pIC50 was ≤ 6.00.
In the case of `O=C(c1ccc(COc2ccccc2-c2ccccn2)cc1)N1CCCCC1` [A-77], the pIC50 was > 7.00.
In the case of `O=C(c1ccc(COc2ccccc2-c2cnc[nH]2)cc1)N1CCCCC1` [A-78], the pIC50 was > 7.00.
For `O=C(c1ccc(COc2ccccc2-c2cncs2)cc1)N1CCCCC1` [A-79], the pIC50 was > 7.00.
In the case of `COc1ccccc1C(=O)Nc1ccc(C(=O)N2CCCCC2)cc1` [A-80], the pIC50 was > 7.00.
For `COc1ccccc1C(=O)N(C)c1ccc(C(=O)N2CCCCC2)cc1` [A-81], the pIC50 was ≤ 6.00.
In the case of `O=C(c1ccc2c(ccn2-c2cccc(Cl)c2)c1)N1CCCCC1` [A-87], the pIC50 was > 7.00.
With `O=C(c1ccc2c(c1)c(Cl)cn2-c1cccc(Cl)c1)N1CCCCC1` [A-88] the pIC50 was > 7.00.
With `O=C(c1ccc2c(-c3cccc(Cl)c3)c[nH]c2c1)N1CCCCC1` [A-89, (3-(3-chlorophenyl)-1H-indol-6-yl)(piperidin-1-yl)methanone] the pIC50 was > 7.00.
For `Cn1cc(-c2cccc(Cl)c2)c2ccc(C(=O)N3CCCCC3)cc21` [A-90, (3-(3-chlorophenyl)-1-methyl-1H-indol-6-yl)(piperidin-1-yl)methanone], the pIC50 was > 7.00.
In the case of `O=C(c1ccc2c(c1)CCCN2c1cccc(Cl)c1)N1CCCCC1` [A-91, (1-(3-chlorophenyl)-1,2,3,4-tetrahydroquinolin-6-yl)(piperidin-1-yl)methanone], the pIC50 was > 7.00.
For `O=C(c1ccc2c(cnn2-c2cccc(Cl)c2)c1)N1CCCCC1` [A-93, (1-(3-chlorophenyl)-1H-indazol-5-yl)(piperidin-1-yl)methanone], the pIC50 was > 7.00.
`O=C(c1ccn2c(-c3cccc(Cl)c3)cnc2c1)N1CCCCC1` [A-94, (3-(3-chlorophenyl)imidazo[1,2-a]pyridin-7-yl)(piperidin-1-yl)methanone] was tested, and the pIC50 was > 7.00.
For `O=C(c1ccc2c(c1)nnn2-c1cccc(Cl)c1)N1CCCCC1` [A-95, (1-(3-chlorophenyl)-1H-benzo[d][1,2,3]triazol-5-yl)(piperidin-1-yl)methanone], the pIC50 was > 7.00.
In the case of `O=C(c1cnc2c(-c3cccc(Cl)c3)cnn2c1)N1CCCCC1` [A-96, (3-(3-chlorophenyl)pyrazolo[1,5-a]pyrimidin-6-yl)(piperidin-1-yl)methanone], the pIC50 was > 7.00.

Same assay, conditions: Table 1, PGDH inhibitors with a 6-5 ring core; read-out: hPGDH: IC50
With `O=C(c1ccc2c(c1)ncn2-c1cccc(Cl)c1)N1CCC(F)C1` (stereo not shown) the pIC50 was 6.80.
With `O=C(c1ccc2c(c1)ncn2-c1cccc(Cl)c1)N1CCCC1` the pIC50 was 6.56.
`NC(=O)Cc1nc2cc(C(=O)N3CCCCC3)ccc2n1-c1cccc(Cl)c1` gave a pIC50 of 6.24.
For `O=C(c1ccc2c(c1)ncn2-c1cccc(Cl)c1)N1CC2CC2C1` (stereo not shown), the pIC50 was 6.93.
`COc1ccc(-n2c(C3CC3)nc3cc(C(=O)N4CCCCC4)ccc32)cc1` gave a pIC50 of 6.71.

Same assay, conditions: Table 2, PGDH inhibitors with a phenyl core; read-out: hPGDH: IC50
`COc1cccc(C(=O)Nc2ccc(C(=O)N3CCCCC3)cc2)c1` gave a pIC50 of 6.87.
Compound `O=C(Nc1ccc(C(=O)N2CCCCC2)cc1)c1ccccc1Cl` has a pIC50 of 6.56.
Compound `COc1ccccc1NC(=O)c1ccc(C(=O)N2CCCCC2)cc1` has a pIC50 of 6.23.
